# Measurements published in US8569298B2, “Pyridine compounds” (Astrazeneca AB, priority 2008, dated 2013).
# Molecular target: T1, FAK enzyme (6 His tagged kinase domain, GenBank NP—722560) (Homo sapiens, UniProt Q05397)
# T1 construct: 6 His; made in house; host or cells: insect cell culture infected with baculovirus
# Test: In vitro enzyme assay (a): sandwich ELISA of FAK tyrosine kinase activity on polyGAT peptide, TMB colorimetric endpoint
# Type: biochemical
# Details: in vitro Enzyme Assay test (a); ATP at Km; geometric mean of n > 1 measurements, values marked * tested once
# Outline: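 Recombinant His-tagged FAK kinase domain (baculovirus/insect cells) phosphorylated plate-coated polyGAT with ATP at Km, MgCl2/MnCl2, HEPES pH 7.4, 25 min at room temperature before EDTA stop. Phosphotyrosine detected by HRP-4G10 antibody and TMB absorbance at 450 nm; IC50 from 12-point curve anchored to DMSO and staurosporine controls.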
# T1 sequence (Q05397 422-680 limits assumed): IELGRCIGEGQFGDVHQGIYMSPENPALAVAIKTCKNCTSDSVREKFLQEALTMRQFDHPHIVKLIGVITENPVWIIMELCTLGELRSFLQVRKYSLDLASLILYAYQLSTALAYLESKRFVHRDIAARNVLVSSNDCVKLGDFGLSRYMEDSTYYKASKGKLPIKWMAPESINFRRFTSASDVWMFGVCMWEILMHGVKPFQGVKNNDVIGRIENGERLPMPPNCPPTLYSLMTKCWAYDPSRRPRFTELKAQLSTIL
row,Structure (SMILES),IC50
1,"CCn1ccc(Nc2cc(Nc3ccccc3C(=O)NC)c(C(F)(F)F)cn2)n1 [Example 8.06, 2-[[2-[(1-ethylpyrazol-3-yl)amino]-5-(trifluoromethyl)-4-pyridyl]amino]-N-methyl-benzamide]",11 nM
2,"CNC(=O)c1ccccc1Nc1cc(Nc2cc(C3CC3)nn2C)ncc1C(F)(F)F [Example 8.07, 2-[[2-[(5-cyclopropyl-2-methyl-pyrazol-3-yl)amino]-5-(trifluoromethyl)-4-pyridyl]amino]-N-methyl-benzamide]",26 nM
3,"CCn1nccc1Nc1cc(Nc2ccccc2C(=O)NC)c(C(F)(F)F)cn1 [Example 8.08, 2-[[2-[(2-ethylpyrazol-3-yl)amino]-5-(trifluoromethyl)-4-pyridyl]amino]-N-methyl-benzamide]",10 nM
4,"CNC(=O)c1ccccc1Nc1cc(Nc2cnn(CC(C)C)c2)ncc1C(F)(F)F [Example 8.09, 2-[[2-[(1-isobutylpyrazol-4-yl)amino]-5-(trifluoromethyl)-4-pyridyl]amino]-N-methyl-benzamide]",69 nM
5,"CNC(=O)c1ccccc1Nc1cc(Nc2c(C)nn(C)c2C)ncc1C(F)(F)F [Example 8.10, N-methyl-2-[[5-(trifluoromethyl)-2-[(1,3,5-trimethylpyrazol-4-yl)amino]-4-pyridyl]amino]benzamide]",13 nM
6,"CNC(=O)c1ccccc1Nc1cc(Nc2cnn(C(C)C)c2)ncc1C(F)(F)F [Example 8.11, 2-[[2-[(1-isopropylpyrazol-4-yl)amino]-5-(trifluoromethyl)-4-pyridyl]amino]-N-methyl-benzamide]",34 nM
7,"CNC(=O)c1ccccc1Nc1cc(Nc2cn(C)nc2C(F)(F)F)ncc1C(F)(F)F [Example 8.12, N-methyl-2-[[2-[[1-methyl-3-(trifluoromethyl)pyrazol-4-yl]amino]-5-(trifluoromethyl)-4-pyridyl]amino]benzamide]",18 nM
8,"CNC(=O)c1cc(OC)ccc1Nc1cc(Nc2cn(C)nc2C)ncc1C(F)(F)F [Example 10.01, 2-[[2-[(1,3-dimethylpyrazol-4-yl)amino]-5-(trifluoromethyl)-4-pyridyl]amino]-5-methoxy-N-methyl-benzamide]",8 nM
9,"CNC(=O)c1ccc(C)cc1Nc1cc(Nc2cn(C)nc2C)ncc1C(F)(F)F [Example 10.02, 2-[[2-[(1,3-Dimethylpyrazol-4-yl)amino]-5-(trifluoromethyl)-4-pyridyl]amino]-N,4-dimethyl-benzamide]",13 nM
10,"CNC(=O)c1cc(C)ccc1Nc1cc(Nc2cn(C)nc2C)ncc1C(F)(F)F [Example 10.03, 2-[[2-[(1,3-dimethylpyrazol-4-yl)amino]-5-(trifluoromethyl)-4-pyridyl]amino]-N,5-dimethyl-benzamide]",2 nM
11,"CNC(=O)c1ccc(OC)cc1Nc1cc(Nc2cn(C)nc2C)ncc1C(F)(F)F [Example 10.04, 2-[[2-[(1,3-dimethylpyrazol-4-yl)amino]-5-(trifluoromethyl)-4-pyridyl]amino]-4-methoxy-N-methyl-benzamide]",53 nM
12,"CNC(=O)c1ccc(F)cc1Nc1cc(Nc2cn(C)nc2C)ncc1C(F)(F)F [Example 10.05, 2-[[2-[(1,3-dimethylpyrazol-4-yl)amino]-5-(trifluoromethyl)-4-pyridyl]amino]-4-fluoro-N-methyl-benzamide]",9 nM
13,"CNC(=O)c1cccc(F)c1Nc1cc(Nc2cn(C)nc2C)ncc1C(F)(F)F [Example 10.06, 2-[[2-[(1,3-dimethylpyrazol-4-yl)amino]-5-(trifluoromethyl)-4-pyridyl]amino]-3-fluoro-N-methyl-benzamide]",10 nM
14,"CNC(=O)c1cc(Cl)ccc1Nc1cc(Nc2cn(C)nc2C)ncc1C(F)(F)F [Example 10.07, 5-chloro-2-[[2-[(1,3-dimethylpyrazol-4-yl)amino]-5-(trifluoromethyl)-4-pyridyl]amino]-N-methyl-benzamide]",14 nM
15,"CONC(=O)c1ccccc1Nc1cc(Nc2cn(C)nc2C)ncc1C(F)(F)F [Example 10.08, 2-[[2-[(1,3-dimethylpyrazol-4-yl)amino]-5-(trifluoromethyl)-4-pyridyl]amino]-N-methoxy-benzamide]",5 nM
16,"CNC(=O)c1ccc(Cl)cc1Nc1cc(Nc2cn(C)nc2C)ncc1C(F)(F)F [Example 10.09, 4-chloro-2-[[2-[(1,3-dimethylpyrazol-4-yl)amino]-5-(trifluoromethyl)-4-pyridyl]amino]-N-methyl-benzamide]",7 nM
17,"CNC(=O)c1cc(SC)ccc1Nc1cc(Nc2cn(C)nc2C)ncc1C(F)(F)F [Example 10.10, 2-[[2-[(1,3-dimethylpyrazol-4-yl)amino]-5-(trifluoromethyl)-4-pyridyl]amino]-N-methyl-5-methylsulfanyl-benzamide]",11 nM
18,"CNC(=O)c1cc(N2CCOCC2)ccc1Nc1cc(Nc2cn(C)nc2C)ncc1C(F)(F)F [Example 10.11, 2-[[2-[(1,3-dimethylpyrazol-4-yl)amino]-5-(trifluoromethyl)-4-pyridyl]amino]-N-methyl-5-morpholino-benzamide]",26 nM
19,"CNC(=O)c1ccc(S(C)(=O)=O)cc1Nc1cc(Nc2cn(C)nc2C)ncc1C(F)(F)F [Example 10.13, 2-[[2-[(1,3-dimethylpyrazol-4-yl)amino]-5-(trifluoromethyl)-4-pyridyl]amino]-N-methyl-4-methylsulfonyl-benzamide]",462 nM
20,"CNC(=O)c1c(Nc2cc(Nc3cc(C)nn3C)ncc2C(F)(F)F)cccc1OC [Example 11.01, 2-[[2-[(2,5-dimethylpyrazol-3-yl)amino]-5-(trifluoromethyl)-4-pyridyl]amino]-6-methoxy-N-methyl-benzamide]",5 nM
21,"CNC(=O)c1nn(C)cc1Nc1cc(Nc2cccc3c2C(=O)N(C)CC3)c(Cl)cn1 [Example 12.01, 4-[[5-chloro-4-[(2-methyl-1-oxo-3,4-dihydroisoquinolin-8-yl)amino]-2-pyridyl]amino]-N,1-dimethyl-pyrazole-3-carboxamide]",915 nM
22,"CN(C)C(=O)c1nn(C)cc1Nc1cc(Nc2cccc3c2C(=O)N(C)CC3)c(Cl)cn1 [Example 12.02, 4-[[5-chloro-4-[(2-methyl-1-oxo-3,4-dihydroisoquinolin-8-yl)amino]-2-pyridyl]amino]-N,N,1-trimethyl-pyrazole-3-carboxamide]",1360 nM
23,"Cc1n[nH]cc1Nc1cc(Nc2cccc3c2C(=O)N(C)CC3)c(Cl)cn1 [Example 12.03, 8-[[5-chloro-2-[(3-methyl-1H-pyrazol-4-yl)amino]-4-pyridyl]amino]-2-methyl-3,4-dihydroisoquinolin-1-one]",2 nM
24,"COCc1nn(C)cc1Nc1cc(Nc2cccc3c2C(=O)N(C)CC3)c(Cl)cn1 [Example 12.04, 8-[[5-chloro-2-[[3-(methoxymethyl)-1-methyl-pyrazol-4-yl]amino]-4-pyridyl]amino]-2-methyl-3,4-dihydroisoquinolin-1-one]",22 nM
25,"CN1CCc2cccc(Nc3cc(Nc4cn(C)nc4C#N)ncc3Cl)c2C1=O [Example 12.05, 4-[[5-chloro-4-[(2-methyl-1-oxo-3,4-dihydroisoquinolin-8-yl)amino]-2-pyridyl]amino]-1-methyl-pyrazole-3-carbonitrile]",20 nM
26,"COc1nn(C)cc1Nc1cc(Nc2cccc3c2C(=O)N(C)CC3)c(Cl)cn1 [Example 12.06, 8-[[5-chloro-2-[(3-methoxy-1-methyl-pyrazol-4-yl)amino]-4-pyridyl]amino]-2-methyl-3,4-dihydroisoquinolin-1-one]",8 nM
